Columns and labels:
M2 (h) = target: T1, M2 (h) (Homo sapiens, UniProt P08172); assay: Radioligand binding M2 (h) (antagonist radioligand), [^3H]AF-DX 384, CHO cells
T1 construct: expressed in transfected cells; host or cells: CHO cells
T1 sequence (P08172 1-466): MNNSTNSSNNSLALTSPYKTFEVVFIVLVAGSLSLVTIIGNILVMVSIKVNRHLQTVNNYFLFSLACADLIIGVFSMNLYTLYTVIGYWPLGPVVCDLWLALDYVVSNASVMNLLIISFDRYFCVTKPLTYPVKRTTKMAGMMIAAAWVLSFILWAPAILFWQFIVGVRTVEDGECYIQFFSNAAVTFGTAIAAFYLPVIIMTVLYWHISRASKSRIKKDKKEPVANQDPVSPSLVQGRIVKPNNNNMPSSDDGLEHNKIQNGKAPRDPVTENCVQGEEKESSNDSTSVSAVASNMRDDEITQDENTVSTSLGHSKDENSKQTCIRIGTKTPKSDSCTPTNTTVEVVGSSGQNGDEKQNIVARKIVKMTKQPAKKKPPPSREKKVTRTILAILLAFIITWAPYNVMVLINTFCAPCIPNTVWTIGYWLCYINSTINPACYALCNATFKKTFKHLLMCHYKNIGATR
Method: (§1) Methods—Binding Assays: In vitro binding assays were performed using human recombinant receptors expressed in mammalian cell lines. Receptors were expressed in either HEK-293 or CHO cells depending on the target, and assay conditions (radioligand, concentration, nonspecific competitor, temperature, and incubation time) were optimized for each receptor. All assays were conducted in triplicate, and specific binding was quantified by scintillation counting as the detection method for each listed assay.
(§2) Specific binding was expressed as a percentage of control-specific binding, and percent inhibition was calculated using the formula in Ex. 8 above. Half-maximal inhibitory concentrations (IC50) were determined by non-linear regression analysis of the inhibition curves using the Hill equation (see Ex. 8). Inhibition constants (Ki) were calculated using the Cheng-Prusoff equation (see Ex. 8). KD values used in these calculations had been previously established for each receptor under the assay conditions (see Table 6). Data analysis was performed using software developed at Cerep and validated against SigmaPlot 4.0 for Windows.

Na^+ channel (site 2) = conditions: Na+ channel (site 2) (antagonist radioligand); footnote: Sodium Channel Site2 (Non-selective) Rat Ion Channel Batrachotoxin Mass Spectr. Binding
beta1 (h) = target: T2, beta1 (h) (Homo sapiens, UniProt P08588); assay: Radioligand binding beta1 (h) (agonist radioligand), [^3H](−)CGP 12177, HEK-293 cells
T2 construct: expressed in transfected cells; host or cells: HEK-293 cells
T2 sequence (P08588 whole entry): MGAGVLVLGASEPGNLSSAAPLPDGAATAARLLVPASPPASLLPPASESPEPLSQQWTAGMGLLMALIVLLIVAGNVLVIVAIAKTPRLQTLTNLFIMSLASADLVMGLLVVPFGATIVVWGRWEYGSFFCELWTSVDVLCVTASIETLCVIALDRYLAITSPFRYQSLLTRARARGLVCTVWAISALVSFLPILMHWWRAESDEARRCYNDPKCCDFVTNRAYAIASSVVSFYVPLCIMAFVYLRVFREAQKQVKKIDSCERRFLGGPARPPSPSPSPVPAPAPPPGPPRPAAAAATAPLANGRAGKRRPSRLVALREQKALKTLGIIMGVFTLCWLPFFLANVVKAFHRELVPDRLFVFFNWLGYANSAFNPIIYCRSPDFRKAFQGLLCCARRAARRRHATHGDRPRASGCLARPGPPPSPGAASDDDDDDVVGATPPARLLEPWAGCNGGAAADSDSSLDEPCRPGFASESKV
Method: as §1, §2

A2A (h) = target: T3, A2A (h) (Homo sapiens, UniProt P29274); assay: Radioligand binding A2A (h) (agonist radioligand), [^3H]CGS 21680, HEK-293 cells
T3 construct: expressed in transfected cells; host or cells: HEK-293 cells
T3 sequence (P29274 whole entry): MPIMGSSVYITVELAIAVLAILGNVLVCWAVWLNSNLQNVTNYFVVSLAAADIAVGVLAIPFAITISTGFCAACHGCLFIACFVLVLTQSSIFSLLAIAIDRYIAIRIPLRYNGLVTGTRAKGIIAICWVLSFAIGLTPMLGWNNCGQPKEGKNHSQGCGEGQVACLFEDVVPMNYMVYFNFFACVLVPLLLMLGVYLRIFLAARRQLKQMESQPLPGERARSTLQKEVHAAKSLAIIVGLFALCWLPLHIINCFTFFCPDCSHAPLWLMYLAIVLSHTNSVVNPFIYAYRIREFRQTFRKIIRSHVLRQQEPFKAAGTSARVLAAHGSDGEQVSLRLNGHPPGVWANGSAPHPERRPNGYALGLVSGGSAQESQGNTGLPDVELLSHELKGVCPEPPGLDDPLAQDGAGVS
Method: as §1, §2

PDE3A(h) = target: T4, PDE3A(h) (Homo sapiens, UniProt Q14432); assay: Enzyme assay PDE3A(h), [3H]cAMP, scintillation counting; format: biochemical
T4 construct: host or cells: Sf21 cells
T4 sequence (Q14432 whole entry): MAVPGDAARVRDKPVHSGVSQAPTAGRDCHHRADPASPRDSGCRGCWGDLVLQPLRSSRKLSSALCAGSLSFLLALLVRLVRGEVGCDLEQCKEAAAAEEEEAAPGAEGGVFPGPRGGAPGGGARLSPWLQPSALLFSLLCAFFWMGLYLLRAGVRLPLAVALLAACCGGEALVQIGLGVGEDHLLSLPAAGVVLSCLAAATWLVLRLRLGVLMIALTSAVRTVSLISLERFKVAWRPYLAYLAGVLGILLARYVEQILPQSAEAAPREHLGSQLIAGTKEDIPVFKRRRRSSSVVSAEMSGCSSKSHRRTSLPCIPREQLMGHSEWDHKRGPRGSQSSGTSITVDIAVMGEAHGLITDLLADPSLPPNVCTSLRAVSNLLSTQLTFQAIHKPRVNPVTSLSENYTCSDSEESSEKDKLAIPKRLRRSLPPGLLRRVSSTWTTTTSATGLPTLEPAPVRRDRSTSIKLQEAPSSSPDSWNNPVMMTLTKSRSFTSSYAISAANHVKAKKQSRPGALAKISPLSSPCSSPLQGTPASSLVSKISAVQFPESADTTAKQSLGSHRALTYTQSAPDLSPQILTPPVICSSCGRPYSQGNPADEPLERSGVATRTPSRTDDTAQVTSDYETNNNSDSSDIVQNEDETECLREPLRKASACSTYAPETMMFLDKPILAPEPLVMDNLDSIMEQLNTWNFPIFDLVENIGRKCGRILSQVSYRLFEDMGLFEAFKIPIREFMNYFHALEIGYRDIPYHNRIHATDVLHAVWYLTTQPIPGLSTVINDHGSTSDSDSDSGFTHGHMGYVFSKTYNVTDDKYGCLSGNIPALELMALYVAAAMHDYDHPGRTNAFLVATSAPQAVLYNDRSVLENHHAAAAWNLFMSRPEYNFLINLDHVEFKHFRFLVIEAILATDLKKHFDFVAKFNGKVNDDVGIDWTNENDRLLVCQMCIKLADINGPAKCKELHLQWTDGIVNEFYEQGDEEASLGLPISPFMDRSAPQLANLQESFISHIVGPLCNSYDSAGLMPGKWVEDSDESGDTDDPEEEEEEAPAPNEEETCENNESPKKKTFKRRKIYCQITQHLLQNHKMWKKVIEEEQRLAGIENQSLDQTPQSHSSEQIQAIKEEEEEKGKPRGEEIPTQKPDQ
Method: Methods—Enzyme and Uptake Assays: In vitro enzyme and uptake assays were conducted by Eurofins Discovery using human recombinant enzymes expressed in various mammalian and insect cell lines. Enzymatic activity was measured using appropriate substrates or tracers under conditions optimized for each target, as detailed in Table 7. Reactions were incubated at room temperature for a defined duration and terminated according to established protocols. The measured components (either enzymatic products or remaining substrate) were quantified using fluorimetry, photometry, scintillation counting, or LANCE technology, depending on the assay. Assay-specific parameters, including substrate identity, cell line source, incubation time, and detection method, are provided in Table 7.
All measurements were performed in technical replicates to ensure reproducibility and data quality.
Results were expressed both as a percentage of control-specific activity and as percent inhibition of control-specific activity. Percent activity was calculated as (measured specific activity/control specific activity)×100, and percent inhibition as 100−[(measured specific activity/control specific activity)×100], based on values obtained in the presence of test compounds. IC50 and EC50 values, along with Hill coefficients (nH), were determined by nonlinear regression analysis of inhibition or concentration-response curves generated from mean replicate values. Hill curve fitting was performed as previously described using software developed at Cerep and validated against SigmaPlot® 4.0 for Windows® (© 1997 by SPSS Inc.).

5-HT transporter (h) = target: T5, 5-HT transporter (h) (Homo sapiens, UniProt P31645); assay: Radioligand binding 5-HT transporter (h) (antagonist radioligand), [^3H]imipramine, CHO cells
T5 construct: expressed in transfected cells; host or cells: CHO cells
T5 sequence (P31645 whole entry): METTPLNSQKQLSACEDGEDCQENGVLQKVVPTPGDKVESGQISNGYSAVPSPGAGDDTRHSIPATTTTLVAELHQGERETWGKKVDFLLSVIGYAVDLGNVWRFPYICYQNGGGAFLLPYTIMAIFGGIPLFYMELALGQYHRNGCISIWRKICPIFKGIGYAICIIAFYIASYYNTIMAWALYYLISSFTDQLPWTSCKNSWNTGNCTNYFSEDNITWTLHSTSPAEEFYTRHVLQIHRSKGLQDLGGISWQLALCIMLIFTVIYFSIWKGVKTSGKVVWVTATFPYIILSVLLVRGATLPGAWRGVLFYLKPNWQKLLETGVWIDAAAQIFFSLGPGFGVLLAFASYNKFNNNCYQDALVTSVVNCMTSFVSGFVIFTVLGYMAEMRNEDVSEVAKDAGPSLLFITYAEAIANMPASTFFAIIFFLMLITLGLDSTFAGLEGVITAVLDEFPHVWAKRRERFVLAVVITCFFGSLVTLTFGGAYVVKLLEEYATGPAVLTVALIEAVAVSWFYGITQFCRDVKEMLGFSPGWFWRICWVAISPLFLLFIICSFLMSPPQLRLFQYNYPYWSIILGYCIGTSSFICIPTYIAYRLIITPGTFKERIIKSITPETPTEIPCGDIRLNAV
Method: as §1, §2

MDR1 = assay: MDR1-MDCKII bidirectional permeability assay; format: in vitro ADME, Canine; conditions: dog; for recovery at 60 min / recovery at 40 min: MDCK-MDR1, pH 7.4; for recovery at 60 min / Papp A→B at 60 min: apical-to-basolateral; for recovery at 60 min: read-out: A-B Percent Recovery; for recovery at 40 min / Papp B→A at 40 min: basolateral-to-apical; for recovery at 40 min: read-out: B-A Percent Recovery; for Papp A→B at 60 min / Papp B→A at 40 min: MDCK-MDR1, HBSS pH 7.4, 37° C.
Method: Methods: In vitro permeability studies were performed using confluent monolayers of MDR1-transfected Madin-Darby Canine Kidney (MDR1-MDCKII) cells cultured under standard conditions. Cells were seeded onto permeable supports and maintained until they formed tight monolayers suitable for bidirectional transport studies. The assay was conducted at 37° C. using Hanks' balanced salt solution (HBSS) adjusted to pH 7.4 on both the apical and basolateral sides. For apical-to-basolateral (A-B) permeability, samples were collected at 0 and 60 minutes, whereas for basolateral-to-apical (B-A) permeability, samples were collected at 0 and 40 minutes. The concentration of each compound in the donor and receiver chambers was determined by HPLC-MS/MS, and all results were expressed in terms of peak area.
The apparent permeability coefficient (Papp) for each compound was calculated using the formula:
[formula] where VR was the volume of the receiver chamber, CR,end was the concentration of the compound in the receiver chamber at the final time point, At was the incubation time, and A was the surface area of the cell monolayer. The midpoint donor concentration (CD,mid) was calculated as the average of the donor concentrations at time 0 and the end time point, while CR,mid was calculated as one-half of CaR,end.
Compound recovery was also evaluated using the following formula:
[formula] where VD and VR were the volumes of the donor and receiver chambers, respectively, CD,end and CR,end were the compound concentrations at the final time point in their respective compartments, and CD0 was the initial concentration in the donor chamber. Monolayer integrity was assessed following the permeability assay using fluorescein as a paracellular marker compound. Fluorescein was added to the apical chamber and sampled in the basolateral chamber after incubation. […] Only data from wells that met this integrity threshold were included in the final analysis.

Row | Compound | Mean Percent Inhibition of Control Specific Binding (M2 (h)) | Mean Percent Inhibition of Control Specific Binding (Na^+ channel (site 2)) | Mean Percent Inhibition of Control Specific Binding (beta1 (h)) | Mean Percent Inhibition of Control Specific Binding (A2A (h)) | Mean Percent Inhibition of Control Specific Binding (PDE3A(h)) | Mean Percent Inhibition of Control Specific Binding (5-HT transporter (h)) | recovery at 60 min (MDR1) | recovery at 40 min (MDR1) | Papp A→B at 60 min (MDR1) | Papp B→A at 40 min (MDR1)
1 | COCc1cc(CCN)c(O)cc1CC(C)C [2CiBu-2OH-5MM, 2-(2-aminoethyl)-5-isobutyl-4-(methoxymethyl)phenol] | 14.9% | 66% | 84.5% | 11.0% | 35.1% | 15.0% |  |  |  | 
2 | COCCc1cc(CCN)c(OC)cc1Br [Compound 2CB-5ME, reference compound] | 21.5% | 46.9% | 26.2% | −21.3% | −4.6% | 8.6% | 75% | 79% | 32.9 ×10⁻⁶ cm/s | 13.8 ×10⁻⁶ cm/s
3 | COCc1cc(CCN)c(OC)cc1Br [Compound 2CB-5MM, 2-(4-bromo-2-methoxy-5-(methoxymethyl)phenyl)ethan-1-amine] | 10.0% | 21.6% | 19% | 12.2% | 14.5% | −1.3% | 78% | 83% | 29.9 ×10⁻⁶ cm/s | 14.5 ×10⁻⁶ cm/s
4 | COCc1cc(CCN)c(OC)cc1CC(C)C [Compound 2CiBu-5MM, 2-[4-isobutyl-2-methoxy-5-(methoxymethyl)phenyl]ethanamine] | 16.0% | 70.4% | 36.0% | 1.1% | 8.2% | 4.9% | 76% | 79% | 24.8 ×10⁻⁶ cm/s | 13.3 ×10⁻⁶ cm/s

Source: patent publication US12692221B2 (priority 2024, dated 2026)
